From patent publication US20110091485A1, “MODULATION OF CELL JUNCTIONS” (priority 2007, published 2011)
Where a SMILES comes first, the peptide text is derived from it. [ ]: non-standard residue; d: D form. Nle = CCCC[C@H](N)C(=O)O

Experiments:
Cx43 = Cx43 levels and Y247 phosphorylation in LA25 cells treated with ALLN (immunoblot); assay type: cell-based; settings: LA25 cells at 35° C. (src active), ALLN 3 h
Protocol: FIG. 16. (A) Src activity leads to reduced levels of Cx43 in gap junctions unless rescued by ALLN treatment. LA25 cells grown at 40° C. or 35° C. (permissive) were untreated or treated with ALLN for 3 h and total Cx43 levels were determined by immunoblot. […] Cells grown at 35° C. were treated with ALLN for 3 h or untreated and pY247 and pY265 levels relative to total Cx43 were determined. In both A & B total cell lysates were harvested, blotted and probed (n=4 separate expts).

GJC = settings: cited from earlier work
Gp140 [1] = target: T1, Gp140 (Homo sapiens, UniProt Q9H5V8); assay type: cell-based; settings: keratinocytes, P1C3 15 min, suramin 35 μM
T1 construct: endogenous in cells; host or cells: human keratinocytes (HKs)
T1 sequence (Q9H5V8 30-836): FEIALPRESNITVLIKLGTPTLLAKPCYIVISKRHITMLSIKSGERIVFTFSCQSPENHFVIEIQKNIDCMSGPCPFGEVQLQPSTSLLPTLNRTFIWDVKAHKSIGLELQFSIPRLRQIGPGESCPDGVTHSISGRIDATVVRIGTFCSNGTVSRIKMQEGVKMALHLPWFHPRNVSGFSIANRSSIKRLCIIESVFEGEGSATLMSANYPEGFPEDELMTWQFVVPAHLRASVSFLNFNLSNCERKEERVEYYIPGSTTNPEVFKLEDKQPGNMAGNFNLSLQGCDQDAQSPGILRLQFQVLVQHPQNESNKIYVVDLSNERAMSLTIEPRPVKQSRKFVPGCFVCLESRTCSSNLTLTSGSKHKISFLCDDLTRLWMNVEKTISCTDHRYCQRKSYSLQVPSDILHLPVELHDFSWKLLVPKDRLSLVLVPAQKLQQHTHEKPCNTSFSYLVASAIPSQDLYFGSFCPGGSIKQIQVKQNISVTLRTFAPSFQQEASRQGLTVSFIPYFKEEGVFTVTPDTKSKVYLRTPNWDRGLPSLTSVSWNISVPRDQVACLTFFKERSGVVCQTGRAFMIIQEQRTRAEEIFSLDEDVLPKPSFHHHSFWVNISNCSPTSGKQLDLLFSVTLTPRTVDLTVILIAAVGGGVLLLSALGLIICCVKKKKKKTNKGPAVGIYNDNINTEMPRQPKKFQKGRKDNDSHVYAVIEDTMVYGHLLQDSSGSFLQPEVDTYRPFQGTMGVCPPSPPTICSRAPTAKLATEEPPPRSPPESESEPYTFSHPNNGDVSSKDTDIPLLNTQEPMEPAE
Protocol: Zymosan or ActGp140 mAb were added to keratinocytes and incubated (30 min), washed, fixed (2% formaldehyde in cacodylate, 10 min) and permeabilized (0.5% Triton-X100, 5 min).
Human keratinocytes were grown in 30 μM Ca^+2 then treated with zymosan (20 μg/10^6 cells) for 30 min or 2 h, extracted with Triton X-100 (0.5% for 5 min) and fixed and stained with Abs against ZO-1 and afadin (AF-6).
Keratinocytes were treated (2 h) with ActGp140 mAb, washed, extracted with Triton X-100 detergent (0.5%, 5 min, 4° C.), fixed and stained with Abs against the indicated proteins.
Keratinocytes (grown in 30 μM Ca^+2) were untreated or treated with ActGp140 or NActGp140 mAbs for 1.5 hrs, washed, extracted with Triton X-100 (0.5% at 4° C. for 5 min) then stained.
(b-c) anti-Gp140 mAb (P1C3). (d) Same field as c stained with Abs against Gp140pY734.

Gp140 [2] = target: T1, Gp140; test: Phosphorylation of Gp140, SFK and PKCδ in keratinocytes (immunoblotting); assay type: cell-based; settings: 5 min
Gp140 [3] = target: T1, Gp140; test: α-catenin localization in cell-cell contacts of keratinocytes grown in low Ca+2; assay type: cell-based; settings: 30 μM Ca+2, suramin 35 μM, 3 hrs
Protocol: FIG. 25. Signals through Gp140/CDCP1 promote α-catenin in cell-cell contacts. Human keratinocytes were grown in low Ca^+2 (30 μM) in order to disassemble adherens junctions that contain cadherins and α-catenin. The keratinocytes were treated without (−Left panel) or with (+Right Panel) Gp140 siRNA to knockdown expression of Gp140. […] Arrows indicate minor subpopulation of cells where Gp140 was not knocked down surrounded by the majority of Gp140 was knocked down.
Signals through Gp140/CDCP1 promote α-catenin in cell-cell contacts. Human keratinocytes were grown in low Ca^+2 (30 μM) in order to disassemble adherens junctions that contain cadherins and α-catenin. The keratinocytes were treated without or with Gp140 siRNA to knockdown expression of Gp140. […] Arrows indicate minor subpopulation of cells where Gp140 was not knocked down surrounded by the majority of Gp140 was knocked down.

Gp140 [4] = target: T2, Gp140 (Mus musculus, UniProt Q5U462); settings: cited from earlier work
T2 construct: from tissue; host or cells: mouse epidermis
T2 sequence (Q5U462 30-833): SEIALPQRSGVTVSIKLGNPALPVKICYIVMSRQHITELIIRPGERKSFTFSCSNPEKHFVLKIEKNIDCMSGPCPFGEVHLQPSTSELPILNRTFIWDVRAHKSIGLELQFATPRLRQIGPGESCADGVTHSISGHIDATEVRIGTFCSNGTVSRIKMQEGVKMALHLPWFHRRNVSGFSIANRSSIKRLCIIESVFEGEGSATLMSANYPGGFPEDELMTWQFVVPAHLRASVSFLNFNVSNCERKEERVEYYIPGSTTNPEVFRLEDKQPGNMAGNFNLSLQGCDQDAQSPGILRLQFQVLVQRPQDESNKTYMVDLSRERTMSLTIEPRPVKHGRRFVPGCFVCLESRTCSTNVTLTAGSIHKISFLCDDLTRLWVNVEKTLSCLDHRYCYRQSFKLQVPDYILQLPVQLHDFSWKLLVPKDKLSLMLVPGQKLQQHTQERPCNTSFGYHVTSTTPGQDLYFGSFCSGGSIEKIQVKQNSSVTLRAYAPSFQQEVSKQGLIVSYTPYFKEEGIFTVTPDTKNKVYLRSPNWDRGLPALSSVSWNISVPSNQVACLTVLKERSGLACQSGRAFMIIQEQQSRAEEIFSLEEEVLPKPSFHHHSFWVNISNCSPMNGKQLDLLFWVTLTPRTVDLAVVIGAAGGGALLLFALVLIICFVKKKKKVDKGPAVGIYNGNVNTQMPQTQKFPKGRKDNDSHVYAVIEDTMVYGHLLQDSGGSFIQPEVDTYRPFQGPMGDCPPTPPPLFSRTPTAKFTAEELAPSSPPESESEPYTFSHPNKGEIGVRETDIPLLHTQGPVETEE

SFKs = test: SFK inhibition with PP2 in keratinocytes (Cx43 immunofluorescence, scratch wound); assay type: cell-based
Protocol: FIG. 13. […] Keratinocytes were pretreated with PP2 (5 μM, 2 h), scratch wounded and after 12 h were fixed in cold methoano/acetone and processed for immunofluorescence for total Cx43 (green). Cell nuclei were stained with DAPI (blue) and the scratched area is shown by an arrow.

CCCC[C@@H](C=O)NC(=O)[C@H](CC(C)C)NC(=O)[C@H](CC(C)C)NC(C)=O [ALLN] (Ac-Leu-Leu-[Nle]-aldehyde)
Y247 phosphorylation relative to total Cx43 (Cx43): increases the levels of Y247 phosphorylation relative to total Cx43

CC1(C)[C@@H](OC(=O)CCC(=O)O)CC[C@]2(C)[C@H]3C(=O)C=C4[C@@H]5C[C@@](C)(C(=O)O)CC[C@]5(C)CC[C@@]4(C)[C@]3(C)CC[C@@H]12 [CBX, 18α-carbenoxalone]
wound outgrowth (GJC): prevents wound outgrowth when applied before, but not after wounding

Cc1ccc(C(=O)Nc2ccc(S(=O)(=O)O)c3cc(S(=O)(=O)O)cc(S(=O)(=O)O)c23)cc1NC(=O)c1cccc(NC(=O)Nc2cccc(C(=O)Nc3cc(C(=O)Nc4ccc(S(=O)(=O)O)c5cc(S(=O)(=O)O)cc(S(=O)(=O)O)c45)ccc3C)c2)c1 [suramin]
phosphorylation and assembly of Gp140 in detergent-resistant membrane clusters in cell-cell contacts (Gp140 [1]): increases phosphorylation and assembly of Gp140 in detergent-resistant Gp140 membrane clusters
PKC activity determined by phosphorylation of VaspS157 (Gp140 [2]): increased
phosphorylation of Gp140Y734, SFKY416 and PKCdY311 by SFKs (Gp140 [2]; suramin 35 μM): increased phosphorylation
α-catenin in cell-cell contacts (Gp140 [3]): dramatic accumulation of α-catenin in cell-cell contacts
phosphorylation and cleavage of Gp140 in mouse epidermis (Gp140 [4]): induces phosphorylation and proteolytic cleavage of Gp140 to p80

CC(C)(C)n1nc(-c2ccc(Cl)cc2)c2c(N)ncnc21 [PP2]
gap junctional density at wound cell-cell interfaces (total Cx43) (SFKs; PP2 5 μM, 2 h pretreatment, scratch wound, 12 h): increases gap junctional density at wound cell-cell interfaces
cell surface Gp140, junctional Cx43 and dye transfer (SFKs; keratinocytes): dramatic increases in cell surface Gp140 and junctional Cx43 and dye transfer
